The term melting point denotes the temperature of the solid-liquid transition.

Molecules are shown by their SMILES.

With `CC1(C)OC(=O)Nc2ccc(-c3cccc(-c4nnn[nH]4)c3)cc21` [Example 52, 4,4-Dimethyl-6-[3-(1H-tetrazol-5-yl)-phenyl]-1,4dihydrobenzo[d][1,3]oxazin-2-one], the melting point lay in the range of 238 to 240 °C.

`C=CCC1(C)OC(=O)Nc2ccc(-c3cccc(Cl)c3)cc21` (stereo not drawn) [Example 36, 4-Allyl-6-(3-chlorophenyl)-4-methyl-1,4-dihydro-benzo[d][1,3]oxazin-2-one] gave a melting point of 128 to 129 °C.

The compound `N#Cc1cccc(-c2ccc3c(c2)C2(CCCCC2)OC(=O)N3)c1` [Example 106, 3-(1,2-Dihydro-2-oxospiro[4H-3,1-benzoxazine-4,1-cyclohexan]-6-yl)-benzonitrile] displayed a melting point of 245 to 247 °C.

In turn, `CCc1cc(C#N)sc1-c1ccc2c(c1)C(C)(C)OC(=O)N2` [Example 111, 5(4,4-Dimethyl-2-oxo-1,4-dihydro-2H-benzo[d][1,3]oxazin-6-yl)-4-ethyl-thiophene-2-carbonitrile] returned a melting point of 160 to 162 °C.

`CC1(C)OC(=O)Nc2ccc(-c3cc(C#N)cc(OC(F)(F)F)c3)cc21` [Example 59, 3-(4,4-Dimethyl-2-oxo-1,4-dihydro-2H-benzo[d][1,3]oxazin-6-yl)-5-trifluoromethoxy-benzonitrile] yielded a melting point of 227 to 228 °C.

For the compound `CC1(C)OC(=O)Nc2c(O)cc(-c3cc(F)cc(C#N)c3)cc21` [Example 129, 3-(4,4-Dimethyl-8-hydroxy-2-oxo-1,4-dihydro-2H-3,1-benzoxazin-6yl)-5-fluorobenzonitrile], the melting point lay in the range of 197 to 198 °C.

`CC1(C)OC(=O)Nc2ccc(-c3cc(C(F)(F)F)cc(C(F)(F)F)c3)cc21` [Example 62, 6-(3,5-Bis-trifluoromethyl-phenyl)-4,4-dimethyl-1,4-dihydrobenzo[d][1,3]oxazin-2-one] registered a melting point of 258 to 260 °C.

Compound `CC1(C)OC(=O)Nc2ccc(-c3cccc(-c4nccs4)c3)cc21` [Example 81, 4,4-Dimethyl-6(3-thiazol-2-yl-phenyl)-1,4-dihydro-benzo[d][1,3]oxazin-2-one] displayed a melting point of 223 to 224 °C.

`CN1C(=O)OC(C)(C)c2cc(-c3cccc(Br)c3)ccc21` [Example 126, 6-(3-Bromophenyl)-1,4,4-trimethyl-1,4-dihydro-2H-3,1-benzoxazin-2-one] displayed a melting point of 142 to 143 °C.

For `CC1(C)OC(=O)Nc2ccc(-c3coc(C=O)c3)cc21` [Example 144, 4-(4,4-Dimethyl-2-oxo-1,4-dihydro-2H-benzo[d][1,3]oxazin-6-yl)-furan-2-carbaldehyde], the melting point fell in the range of 262 to 263 °C.

`O=C1Nc2ccc(-c3cccc([N+](=O)[O-])c3)cc2C2(CCCCC2)O1` [Example 32, 6-(3—Nitrophenyl)-spiro[4H-3,1-benzoxazine-4,1′-cyclohexan]-2(1H)-one] yielded a melting point of 245 to 246 °C.

In the case of `CC1(C)OC(=O)Nc2ccc(-c3cccc([N+](=O)[O-])c3)cc21` [Example 13, 4,4Dimethyl6-(3-nitrophenyl)-1,4dihydrobenzo[d][1,3]oxazin-2-one], the melting point was 244 to 245 °C.

`CC1OC(=O)Nc2ccc(-c3cccc(F)c3)cc21` (stereo not drawn) [Example 127, 6-(3-Fluorophenyl)-4-methyl-1,4-dihydro-2H-3,1-benzoxazin-2-one] registered a melting point of 160 to 161 °C.

Consider `CC1(c2ccccc2)OC(=O)Nc2ccc(-c3cccc(Cl)c3)cc21` (stereo not drawn) [Example 39, 6-(3-Chlorophenyl)-4-methyl-4-phenyl-1,4dihydro-benzo[d][1,3]oxazin-2-one], for which the melting point was in the range of 179 to 180 °C.

For `CC1(C)OC(=O)Nc2ccc(-c3cc(F)cc(CC#N)c3)cc21` [Example 133, 3-(4,4Dimethyl-2-oxo-1,4-dihydro-2H-benzo[d][1,3]-oxazin-6-yl)-5-fluoro-phenylacetonitrile], the melting point lay in the range of 218 to 220 °C.

The record behind these values is US6444668B1 (Wyeth, priority 1999, dated 2002).
